Measured values from patent US20230348424A1, “HETEROCYCLIC COMPOUNDS AND METHODS OF USE” (Schrödinger, Inc., priority 2022, published 2023).

Biological target: SOS1:KRAS (G12C) interaction (Homo sapiens (Human), UniProt Q07889)
Assay: SOS1 KRas(G12C) FRET Assay
Assay type: binding
Conditions: 0.5 nM His10-SOS1 (res. 564-1049), 2.5 nM GST-KRAS G12C (res. 1-169), 2 hrs at RT
Summary of the method: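 GST-KRAS G12C (res. 1-169) at 2.5 nM and His10-SOS1 (res. 564-1049) at 0.5 nM, final, in PBS with 0.1% BSA, 5 mM MgCl2, 100 mM KF, 5 mM DTT and 0.5% DMSO. After 2 h at RT, FRET read at 665/615 nm and normalized to DMSO and no-SOS1 controls. IC50 by non-linear regression.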

Sequence of SOS1:KRAS (G12C) interaction (Q07889 564-1049, stated change not applied): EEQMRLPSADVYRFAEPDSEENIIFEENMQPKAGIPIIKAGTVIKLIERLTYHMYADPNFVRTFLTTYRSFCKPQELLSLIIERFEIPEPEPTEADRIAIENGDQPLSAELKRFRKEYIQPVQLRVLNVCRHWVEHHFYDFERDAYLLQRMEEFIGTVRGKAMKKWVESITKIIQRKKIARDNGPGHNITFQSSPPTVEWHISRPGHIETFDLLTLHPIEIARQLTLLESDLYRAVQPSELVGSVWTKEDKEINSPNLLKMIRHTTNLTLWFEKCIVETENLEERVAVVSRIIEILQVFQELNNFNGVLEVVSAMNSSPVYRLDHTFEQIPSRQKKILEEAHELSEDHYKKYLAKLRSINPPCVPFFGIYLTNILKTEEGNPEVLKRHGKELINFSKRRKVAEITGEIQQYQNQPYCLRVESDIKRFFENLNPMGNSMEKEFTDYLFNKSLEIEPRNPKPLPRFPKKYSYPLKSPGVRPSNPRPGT

IC50 [nM] | Structure (SMILES)
7.4 | C[C@@H](NC(=O)c1cn(C23CC(C2)C3)c(=O)cc1NC1CCN(C)CC1)c1cccc(C(F)F)c1F [Example 217, (R)-1-(bicyclo[1.1.1]pentan-1-yl)-N-(1-(3-(difluoromethyl)-2-fluorophenyl)ethyl)-4-((1-methylpiperidin-4-yl)amino)-6-oxo-1,6-dihydropyridine-3-carboxamide]
26.8 | C[C@@H](NC(=O)c1cn(C23COC(C)(C2)C3)c(=O)cc1NC1CCN(C)CC1)c1cccc(C(F)F)c1F [Example 220, (R)-N-(1-(3-(difluoromethyl)-2-fluorophenyl)ethyl)-1-(1-methyl-2-oxabicyclo[2.1. 1]hexan-4-yl)-4-((1-methylpiperidin-4-yl)amino)-6-oxo-1,6-dihydropyridine-3-carboxamide]
38.2 | C[C@@H](NC(=O)c1cn(C2(C(F)F)CC2)c(=O)cc1NC[C@H]1CCCN1C)c1cccc(C(F)F)c1F [Example 221, N-((R)-1-(3-(difluoromethyl)-2-fluorophenyl)ethyl)-1-(1-(difluoromethyl)cyclopropyl)-4-((((R)-1-methylpyrrolidin-2-yl)methyl)amino)-6-oxo-1,6-dihydropyridine-3-carboxamide]
27.6 | C[C@@H](NC(=O)c1cn(C2(C)CC(F)(F)C2)c(=O)cc1NC1CCN(C)CC1)c1cccc(C(F)F)c1F [Example 222, (R)-1-(3,3-difluoro-1-methylcyclobutyl)-N-(1-(3-(difluoromethyl)-2-fluorophenyl)ethyl)-4-((1-methylpiperidin-4-yl)amino)-6-oxo-1,6-dihydropyridine-3-carboxamide]
14.1 | C[C@@H](NC(=O)c1cn(C2(C(F)(F)F)CCCC2)c(=O)cc1NC1CCN(C)CC1)c1cccc(C(F)F)c1F [Example 223, (R)-N-(1-(3-(difluoromethyl)-2-fluorophenyl)ethyl)-4-((1-methylpiperidin-4-yl)amino)-6-oxo-1-(1-(trifluoromethyl)cyclopentyl)-1,6-dihydropyridine-3-carboxamide]
13.9 | C[C@@H](NC(=O)c1cn(C2(C(F)(F)F)CCC2)c(=O)cc1NC1CCN(C)CC1)c1cccc(C(F)F)c1F [Example 225, (R)-N-(1-(3-(difluoromethyl)-2-fluorophenyl)ethyl)-4-((1-methylpiperidin-4-yl)amino)-6-oxo-1-(1-(trifluoromethyl)cyclobutyl)-1,6-dihydropyridine-3-carboxamide]
21.9 | C[C@@H](NC(=O)c1cn(C2(C(C)(F)F)CC2)c(=O)cc1NC1CCN(C)CC1)c1cccc(C(F)F)c1F [Example 230, (R)-1-(1-(1,1-difluoroethyl)cyclopropyl)-N-(1-(3-(difluoromethyl)-2-fluorophenyl)ethyl)-4-((1-methylpiperidin-4-yl)amino)-6-oxo-1,6-dihydropyridine-3-carboxamide]
91.9 | C[C@@H](NC(=O)c1cn([C@@]2(C(F)(F)F)CCOC2)c(=O)cc1NC1CCN(C)CC1)c1cccc(C(F)F)c1F [Example 232, N-((R)-1-(3-(difluoromethyl)-2-fluorophenyl)ethyl)-4-((1-methylpiperidin-4-yl)amino)-6-oxo-1-((S)-3-(trifluoromethyl)tetrahydrofuran-3-yl)-1,6-dihydropyridine-3-carboxamide]
4.8 | C[C@@H](NC(=O)c1cn([C@]2(C(F)(F)F)CCOC2)c(=O)cc1NC1CCN(C)CC1)c1cccc(C(F)F)c1F [Example 233, N-((R)-1-(3-(difluoromethyl)-2-fluorophenyl)ethyl)-4-((1-methylpiperidin-4-yl)amino)-6-oxo-1-((R)-3-(trifluoromethyl)tetrahydrofuran-3-yl)-1,6-dihydropyridine-3-carboxamide]
13.5 | C[C@@H](NC(=O)c1cn(C2(C(F)F)CC2)c(=O)cc1NC1CCN(C)C2(CC2)C1)c1cccc(C(F)F)c1F (stereo partly drawn) [Example 240, N-((R)-1-(3-(difluoromethyl)-2-fluorophenyl)ethyl)-1-(1-(difluoromethyl)cyclopropyl)-4-((4-methyl-4-azaspiro[2.5]octan-7-yl)amino)-6-oxo-1,6-dihydropyridine-3-carboxamide]
29 | C[C@@H](NC(=O)c1cn(C2(C3CCC3)CC2)c(=O)cc1NC1CCN(C)CC1)c1cccc(C(F)F)c1F [Example 241, (R)-1-(1-cyclobutylcyclopropyl)-N-(1-(3-(difluoromethyl)-2-fluorophenyl)ethyl)-4-((1-methylpiperidin-4-yl)amino)-6-oxo-1,6-dihydropyridine-3-carboxamide]

Further lines, the compound ahead of its results:

Structure (SMILES) | IC50 [nM]
C[C@@H](NC(=O)c1cn(C23CC(C2)C3)c(=O)cc1N[C@@H]1C[C@@H]2CN(C)C[C@@H]2C1)c1cccc(C(F)F)c1F [Example 216, 1-(bicyclo[1.1.1]pentan-1-yl)-N-((R)-1-(3-(difluoromethyl)-2-fluorophenyl)ethyl)-4-(((3aR,5r,6aS)-2-methyloctahydrocyclopenta[c]pyrrol-5-yl)amino)-6-oxo-1,6-dihydropyridine-3-carboxamide] | 19.1
C[C@@H](NC(=O)c1cn(C2(C)CC(F)(F)C2)c(=O)cc1N[C@H]1[C@@H]2CN(C)C[C@@H]21)c1cccc(C(F)F)c1F [Example 224, 1-(3,3-difluoro-1-methylcyclobutyl)-N-((R)-1-(3-(difluoromethyl)-2-fluorophenyl)ethyl)-4-(((1R,5S,6s)-3-methyl-3-azabicyclo[3.1.0]hexan-6-yl)amino)-6-oxo-1,6-dihydropyridine-3-carboxamide] | 46.8
C[C@@H](NC(=O)c1cn(C2(C(F)F)CC2)c(=O)cc1NC[C@@H]1[C@H]2CN(C)C[C@@H]12)c1cccc(C(F)F)c1F [Example 226, N-((R)-1-(3-(difluoromethyl)-2-fluorophenyl)ethyl)-1-(1-(difluoromethyl)cyclopropyl)-4-((((1R,5S,6s)-3-methyl-3-azabicyclo[3.1.0]hexan-6-yl)methyl)amino)-6-oxo-1,6-dihydropyridine-3-carboxamide] | 35.3
C[C@@H](NC(=O)c1cn(C2(C(F)F)CC2)c(=O)cc1N[C@]12C[C@H]1CN(C)C2)c1cccc(C(F)F)c1F [Example 227, N-((R)-1-(3-(difluoromethyl)-2-fluorophenyl)ethyl)-1-(1-(difluoromethyl)cyclopropyl)-4-(((1R,5S)-3-methyl-3-azabicyclo[3.1.0]hexan-1-yl)amino)-6-oxo-1,6-dihydropyridine-3-carboxamide] | 61.9
C[C@@H](NC(=O)c1cn(C2(C(F)F)CC2)c(=O)cc1N[C@@]12C[C@@H]1CN(C)C2)c1cccc(C(F)F)c1F [Example 228, N-((R)-1-(3-(difluoromethyl)-2-fluorophenyl)ethyl)-1-(1-(difluoromethyl)cyclopropyl)-4-(((1S,5R)-3-methyl-3-azabicyclo[3.1.0]hexan-1-yl)amino)-6-oxo-1,6-dihydropyridine-3-carboxamide] | 64.3
C[C@@H](NC(=O)c1cn(C2(C(F)F)CC2)c(=O)cc1N[C@H]1C[C@@H](N(C)C)C1)c1cccc(C(F)F)c1F [Example 229, N-((R)-1-(3-(difluoromethyl)-2-fluorophenyl)ethyl)-1-(1-(difluoromethyl)cyclopropyl)-4-(((1s,3S)-3-(dimethylamino)cyclobutyl)amino)-6-oxo-1,6-dihydropyridine-3-carboxamide] | 22.7
C[C@@H](NC(=O)c1cn(C2CC3(C2)CC(F)(F)C3)c(=O)cc1N[C@H]1[C@@H]2CN(C)C[C@@H]21)c1cccc(C(F)F)c1F [Example 231, N-((R)-1-(3-(difluoromethyl)-2-fluorophenyl)ethyl)-1-(6,6-difluorospiro[3.3]heptan-2-yl)-4-(((1R,5S,6s)-3-methyl-3-azabicyclo[3.1.0]hexan-6-yl)amino)-6-oxo-1,6-dihydropyridine-3-carboxamide] | 10.2
C[C@@H](NC(=O)c1cn(C2CC23CCC(F)(F)CC3)c(=O)cc1N[C@H]1[C@@H]2CN(C)C[C@@H]21)c1cccc(C(F)F)c1F (stereo partly drawn) [Example 242, N-((R)-1-(3-(difluoromethyl)-2-fluorophenyl)ethyl)-1-(6,6-difluorospiro[2.5]octan-1-yl)-4-(((1R,5S,6s)-3-methyl-3-azabicyclo[3.1.0]hexan-6-yl)amino)-6-oxo-1,6-dihydropyridine-3-carboxamide] | 11.6
C[C@@H](NC(=O)c1cn([C@@H]2CCOC[C@H]2F)c(=O)cc1N[C@H]1[C@@H]2C[C@H]1CN(C)C2)c1cccc(C(F)F)c1F [Example 243, N-((R)-1-(3-(difluoromethyl)-2-fluorophenyl)ethyl)-1-((3S,4R)-3-fluorotetrahydro-2H-pyran-4-yl)-4-(((1R,5Sx,6r)-3-methyl-3-azabicyclo[3.1.1]heptan-6-yl)amino)-6-oxo-1,6-dihydropyridine-3-carboxamide] | 6.3
C[C@@H](NC(=O)c1cn([C@@H]2CCOC[C@H]2F)c(=O)cc1N[C@@H]1[C@@H]2C[C@H]1CN(C)C2)c1cccc(C(F)F)c1F [Example 244, N-((R)-1-(3-(difluoromethyl)-2-fluorophenyl)ethyl)-1-((3S,4R)-3-fluorotetrahydro-2H-pyran-4-yl)-4-(((1R5S,6s)-3-methyl-3-azabicyclo[3.1.1]heptan-6-yl)amino)-6-oxo-1,6-dihydropyridine-3-carboxamide] | 18.1
COC12CC(CNc3cc(=O)n(C45CC(C4)C5)cc3C(=O)N[C@H](C)c3cccc(C(F)F)c3F)(C1)C2 [Example 262, (R)-1-(bicyclo[1.1.1]pentan-1-yl)-N-(1-(3-(difluoromethyl)-2-fluorophenyl)ethyl)-4-(((3-methoxybicyclo[1.1.1]pentan-1-yl)methyl)amino)-6-oxo-1,6-dihydropyridine-3-carboxamide] | 116
